{
  "source": "patent US7179613B2",
  "about": "“Methods of screening for a candidate modulator of glucokinase” (Vanderbilt University, priority 2003, dated 2007)",
  "molecules": {"B1": {"name": "GK-C371S: glucokinase with cysteine 371 mutated to serine; recombinant His-tagged, or YFP-tagged in cells (protein, UniProt P35557 1-465, looked up, variant C371S)", "Hexokinase-4": "MLDDRARMEAAKKEKVEQILAEFQLQEEDLKKVMRRMQKEMDRGLRLETHEEASVKMLPTYVRSTPEGSEVGDFLSLDLGGTNFRVMLVKVGEGEEGQWSVKTKHQMYSIPEDAMTGTAEMLFDYISECISDFLDKHQMKHKKLPLGFTFSFPVRHEDIDKGILLNWTKGFKASGAEGNNVVGLLRDAIKRRGDFEMDVVAMVNDTVATMISCYYEDHQCEVGMIVGTGCNACYMEEMQNVELVEGDEGRMCVNTEWGAFGDSGELDEFLLEYDRLVDESSANPGQQLYEKLIGGKYMGELVRLVLLRLVDENLLFHGEASEQLRTRGAFETRFVSQVESDTGDRKQIYNILSTLGLRPSTTDCDIVRRASESVSTRAAHMCSAGLAGVINRMRESRSEDVMRITVGVDGSVYKLHPSFKERFHASVRRLTPSCEITFIESEEGSGRGAALVSAVACKKACMLGQ", "modifications": "His tag or YFP fusion", "notes": "glucokinase with cysteine 371 mutated to serine; recombinant His-tagged, or YFP-tagged in cells"}, "B2": {"name": "C364S: glucokinase with cysteine 364 mutated to serine, YFP-tagged construct (protein, UniProt P35557 1-465, looked up, variant C364S)", "Hexokinase-4": "MLDDRARMEAAKKEKVEQILAEFQLQEEDLKKVMRRMQKEMDRGLRLETHEEASVKMLPTYVRSTPEGSEVGDFLSLDLGGTNFRVMLVKVGEGEEGQWSVKTKHQMYSIPEDAMTGTAEMLFDYISECISDFLDKHQMKHKKLPLGFTFSFPVRHEDIDKGILLNWTKGFKASGAEGNNVVGLLRDAIKRRGDFEMDVVAMVNDTVATMISCYYEDHQCEVGMIVGTGCNACYMEEMQNVELVEGDEGRMCVNTEWGAFGDSGELDEFLLEYDRLVDESSANPGQQLYEKLIGGKYMGELVRLVLLRLVDENLLFHGEASEQLRTRGAFETRFVSQVESDTGDRKQIYNILSTLGLRPSTTDSDIVRRACESVSTRAAHMCSAGLAGVINRMRESRSEDVMRITVGVDGSVYKLHPSFKERFHASVRRLTPSCEITFIESEEGSGRGAALVSAVACKKACMLGQ", "modifications": "YFP fusion", "notes": "glucokinase with cysteine 364 mutated to serine, YFP-tagged construct"}},
  "key": {"[1]": {"tested_on": "GK", "test": "FRAP of GK-YFP to CFP-labeled insulin granules (GK association with secretory granules)", "format": "cell-based", "conditions": "for Insulin-stimulated FRAP of mutant GK-YFP to CFP labeled granules: βTC3 cells, mutant GK-YFP and proinsulin-CFP", "procedure": "(§1) Cell culture. βTC3 cells were cultured as described (Rizzo et al., 2002) and were transferred to media containing 1 g/L glucose overnight prior to observation. […] For FRAP, CFP-GK-YFP FRET, and nitrosylation experiments, DNA plasmids containing GK-YFP constructs, proinsulin-CFP, or CFP-GK-YFP were introduced by electroporation prior to seeding as previously described (Rizzo et al., 2002). For studies requiring co-transfection, plasmid DNA encoding the indicated constructs were transfected using either a ratio of (2 μg nNOS-CFP:1 μg GK-YFP:6 μl FUGENE (Roche Applied Science)) or of (1 μg nNOS-CFP-nuc:2 μg GK-YFP:6 μl FUGENE). Transfection was for 4 h in serum-free media, followed by replacement with low-glucose media. Observation took place the following day.\n(§2) Microscopy. βTC3 cells were labeled with 5 μM DAF-FM diacetate (Molecular Probes) for 25 min at 25° C. in BSA free BMHH. Observation was with 488 nm excitation and 505–530 nm collection by laser scanning confocal microscopy (Zeiss LSM510). During observation, cells were heated to 32° C. using a Bioptechs Delta T system. FRAP and intramolecular FRET measurements were performed on cultured βTC3 cells as previously described (Rizzo et al., 2002). Statistical significance (p<0.05 by ANOVA or t-test as appropriate) is denoted by * and was determined from at least three granules in the same region or at least three cells for the FRET studies as compared to pre-treatment FRET ratios. Data shown is representative of at least 3 independent trials. Observation of nNOS-CFP-nuc and GK-YFP were performed using the same filter settings as the FRAP measurements. FRET between nNOS-CFP and GK-YFP was observed using 864 nm two-photon excitation along with a KP700/514 main beam splitter and standard CFP and YFP collection using a 40×, 1.3NA F-FLUAR oil immersion objective lens. For the FRET measurements, the temperature was maintained at 37° C. using a Zeiss S-M incubator controlled by the CTI temperature regulator along with humidification and an objective heater."}, "[2]": {"tested_on": "GK", "test": "Detection of S-nitrosylated GK (biotinylation, neutravidin-agarose or immunoprecipitation, Western blot)", "format": "cell-based", "conditions": "for Nitrosylated GK in neutravidin precipitates: βTC3 cell lysates, insulin alone or L-NAME in addition to insulin; for S-nitrosylation of mutant GK-YFP: mutant GK-YFP constructs expressed in βTC3 cells", "procedure": "Detection of nitrosylated proteins. S-nitrosylated proteins were biotinylated and isolated from cell lysates using the protocol described (Jaffrey et al., 2001). Briefly, cells were lysed in HEN buffer (250 mM Hepes pH7.7, 1 mM EDTA, 0.1 mM neocuproine) using 0.5% triton X-100 and 0.5% Cholate prior to protection of free cysteines with methyl methanethiosulfonate (Pierce) and derivatization of S-nitrosylated cysteines with ascorbic acid and biotin-HPDP (Pierce). Biotinylated proteins were either isolated by binding to neutravidin-agarose (Pierce), followed by 5 washes with a high salt buffer (20 mM Hepes pH 7.7, 600 mM NaCl, 1 mM EDTA and 0.5% Triton X-100) and elution in HNE buffer (20 mM Hepes pH 7.7, 100 mM NaCl, 1 mM EDTA) plus 100 mM 2-mercaptoethanol. Alternatively, GK-YFPs were isolated by immunopreciptation with A.V. Peptide Antibody (BD BioSciences Clontech) preconjugated to IgG agarose (Sigma). Western blots were then performed on eluted proteins to detect GK and nitrosylated proteins."}, "[3]": {"tested_on": "GK", "test": "Intramolecular FRET of CFP-GK-YFP (GK conformation)", "format": "cell-based", "conditions": "5 min; for Insulin-stimulated changes in FRET of mutant CFP-GK-YFP: 100 nM insulin", "procedure": "as §1, §2"}, "[4]": {"tested_on": "interaction between nNOS and GK", "test": "FRET between nNOS-CFP and GK-YFP in living cells (two-photon microscopy)", "format": "cell-based, rat", "conditions": "insulin 100 nM", "procedure": "as §1\nGeneration of constructs. […]\n(§3) Microscopy. βTC3 cells were labeled with 5 μM DAF-FM diacetate (Molecular Probes) for 25 min at 25° C. in BSA free BMHH. […] Statistical significance (p<0.05 by ANOVA or t-test as appropriate) is denoted by * and was determined from at least three granules in the same region or at least three cells for the FRET studies as compared to pre-treatment FRET ratios. […]"}, "[5]": {"tested_on": "βTC3 cells", "test": "NO production in βTC3 cells loaded with DAF-FM (confocal microscopy)", "format": "cell-based", "conditions": "βTC3 cells starved 4 h, 100 nM insulin vs untreated cells", "procedure": "as §1\nas §3, with “BMHH. Observation was with 488 nm excitation and 505–530 nm collection by laser scanning confocal microscopy (Zeiss LSM510). During observation, cells were heated to 32° C. using a Bioptechs Delta T system.” for “BMHH.”"}, "[6]": {"target": "T1, GK association with nNOS (Mus musculus, UniProt P52792)", "T1 construct": "the inventors immunoprecipitated endogenous GK from cell lysates; endogenous in cells; host or cells: βTC3 cells", "T1 sequence (P52792 1-465)": "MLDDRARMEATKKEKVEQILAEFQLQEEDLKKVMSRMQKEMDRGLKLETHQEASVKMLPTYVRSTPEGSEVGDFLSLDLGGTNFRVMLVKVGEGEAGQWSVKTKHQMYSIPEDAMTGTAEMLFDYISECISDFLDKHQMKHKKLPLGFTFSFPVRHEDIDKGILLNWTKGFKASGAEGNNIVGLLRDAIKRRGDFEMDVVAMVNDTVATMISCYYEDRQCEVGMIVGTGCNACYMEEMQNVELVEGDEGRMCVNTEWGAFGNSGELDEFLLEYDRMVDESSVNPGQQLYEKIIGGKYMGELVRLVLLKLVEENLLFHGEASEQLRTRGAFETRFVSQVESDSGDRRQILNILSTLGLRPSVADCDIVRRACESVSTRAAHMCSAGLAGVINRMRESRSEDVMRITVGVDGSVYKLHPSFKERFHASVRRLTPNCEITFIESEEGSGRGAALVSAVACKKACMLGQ", "format": "binding", "conditions": "1 mM DEANO in PBS, 37° C., 10 min"}, "[7]": {"tested_on": "GK association with nNOS", "format": "binding", "conditions": "1 mM DEANO in PBS, 37° C., 10 min"}},
  "data": [
    {"molecule": "CC(=O)N[C@H](C(=O)O)C(C)(C)SN=O", "note": "[SNAP, S-nitroso-N-acetylpenicillamin]", "values": [
      {"measurement": "Reversal of NOS inhibition in GK-YFP FRAP", "setting": "[1]; SNAP 100 μM, 1 min, after L-NAME and insulin", "value": "effects of NOS inhibition were reversed"}
    ]},
    {"molecule": "COC(=O)[C@@H](N)CCCNC(=N)N[N+](=O)[O-]", "note": "[L-NAME, N^G-nitro-L-arginine-methyl ester, reference compound]", "values": [
      {"measurement": "Effect on insulin-stimulated GK-YFP FRAP", "setting": "[1]; L-NAME 5 mM, 10 min pretreatment, then insulin 100 nM, 5 min", "value": "blocked the stimulatory effects of insulin on GK-YFP FRAP"},
      {"measurement": "Glucose stimulated activation of GK FRAP and FRET", "setting": "[1]; treatment with L-NAME, data not shown", "value": "sensitive"},
      {"measurement": "Nitrosylated GK in neutravidin precipitates", "setting": "[2]", "value": "not"},
      {"measurement": "Effect on insulin-induced decrease of the CFP-GK-YFP FRET ratio", "setting": "[3]; L-NAME 5 mM, 10 min before insulin 100 nM", "value": "prevented the decrease in the FRET ratio"}
    ]},
    {"molecule": "insulin", "values": [
      {"measurement": "FRET between nNOS-CFP and GK(C371S)-YFP", "setting": "[4]", "value": "increased"},
      {"measurement": "FRET between nNOS-CFP and GK-YFP", "setting": "[4]", "value": "decrease"},
      {"measurement": "NO production (fluorescence of DAF-FM)", "setting": "[5]", "value": "rapid increase in the fluorescence of DAF-FM"},
      {"measurement": "Nitrosylated GK in neutravidin precipitates", "setting": "[2]", "value": "detected"},
      {"measurement": "FRET ratio between CFP and YFP on opposing ends of GK", "setting": "[3]; βTC3 cells, insulin 100 nM", "value": "decreases"}
    ]},
    {"molecule": "CCN(CC)/[N+]([O-])=N/O.CCNCC", "note": "[DEANO, diethylamine nitric oxide]", "values": [
      {"measurement": "Elution of nNOS from endogenous GK and GK-YFP precipitates", "setting": "[6]", "value": "resulted in elution of nNOS"},
      {"measurement": "Elution of nNOS from GK(C371S)-YFP precipitates", "setting": "[7]", "value": "not from GK(C371S)-YFP precipitates"}
    ]},
    {"molecule": "B1", "values": [
      {"measurement": "Insulin-stimulated FRAP of mutant GK-YFP to CFP labeled granules", "setting": "[1]", "value": "stopped insulin-stimulated FRAP"},
      {"measurement": "S-nitrosylation of mutant GK-YFP", "setting": "[2]", "value": "eliminated GK nitrosylation"},
      {"measurement": "Insulin-stimulated changes in FRET of mutant CFP-GK-YFP", "setting": "[3]; βTC3 cells", "value": "stopped"}
    ]},
    {"molecule": "B2", "values": [
      {"measurement": "Insulin-stimulated FRAP of mutant GK-YFP to CFP labeled granules", "setting": "[1]", "value": "did not have a significant effect"},
      {"measurement": "S-nitrosylation of mutant GK-YFP", "setting": "[2]", "value": "slight decrease in the amount of nitrosylated GK"},
      {"measurement": "Insulin-stimulated changes in FRET of mutant CFP-GK-YFP", "setting": "[3]; βTC3 cells", "value": "did not have a significant effect"}
    ]}
  ]
}
